Patent US8450298B2, “Aminoalcohol lipidoids and uses thereof” (Massachusetts Institute of Technology, priority 2008, dated 2013)

Tested on: Factor VII
Experiment: In vivo Factor VII knockdown with anti-Factor VII siRNA in lipidoid formulations
Conditions: mice, 0.01 mg/kg siRNA dosing
Protocol: C57BL/6 mice (Charles River Labs) received either saline or siRNA in lipidoid formulations via tail vein injection at a volume of 0.01 ml/g. […] At 48 hours after administration, animals were anesthetized by isofluorane inhalation and blood was collected into serum separator tubes by retroorbital bleed. Serum levels of Factor VII protein were determined in samples using a chromogenic assay (Biophen FVII, Aniara Corporation) according to the manufacturer's protocols. A standard curve was generated using serum collected from saline-treated animals. Exemplary results are depicted in FIG. 7.
To test siRNA delivery efficacy in vivo, a mouse model for liver delivery was used. […] Once produced by hepatocytes, Factor VII is released into the bloodstream, and a baseline level of expression can be determined by simple blood draw and quantification of protein levels by colorimetric assay. By delivering anti-Factor VII siRNA to hepatocytes, knockdown of this model protein can be achieved and a percentage of silencing can be determined by comparison to an untreated control. […]
Following the initial in vivo screening experiments, two compounds were used to conduct a dose response. […] In addition to Factor VII measurement, the change in mouse body weight is recorded and a loss in weight is generally considered formulation induced toxicity (See FIG. 13b and FIG. 14b). […]

Row | SMILES | reduction of systemic Factor VII (preliminary) | difference between Factor VII results of racemic C12-200 and those of the R or S forms
1 | CCCCCCCCCC[C@@H](O)CN(CCN1CCN(CCN(C[C@H](O)CCCCCCCCCC)C[C@H](O)CCCCCCCCCC)CC1)CCN(C[C@H](O)CCCCCCCCCC)C[C@H](O)CCCCCCCCCC [(R)-C12-200] | approximately 50% | –
2 | CCCCCCCCCCC(O)CN(CCN1CCN(CCN(CC(O)CCCCCCCCCC)CC(O)CCCCCCCCCC)CC1)CCN(CC(O)CCCCCCCCCC)CC(O)CCCCCCCCCC (centres unmarked) [C12-200] | – | insignificant
